Data: PubChem BioAssay (NCI)
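Cells were grown in 96-well plates and exposed to each compound for 48 hours at five concentrations; endpoints were interpolated linearly between bracketing concentrations, or set to the highest concentration if not reached. GI50 = concentration required for 50% inhibition of growth. TGI marks complete inhibition of growth.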 Where a SMILES comes first, the peptide text is derived from it. Bridges are numbered along the chain shown (N, C = ends). Roman numbers before positions name the chains, in order. [ ]: non-standard residue; d: D form. The star is where a group is joined. Quinoxaline2carbonyl = O=C(c1cnc2ccccc2n1)*; NMeV = CN[CH](C(=O)O)C(C)C; NMeC = CN[CH](CS)C(=O)O

Experiments:
Assay in all cases: inhibition of tumour cell growth, NCI panel, 48 h
NCI-H522 lung = test system: NCI-H522 lung
SF-268 CNS = test system: SF-268 CNS
HOP-62 NSCLC = test system: HOP-62 NSCLC
NCI/ADR-RES ovarian = test system: NCI/ADR-RES ovarian
OVCAR-3 ovarian = test system: OVCAR-3 ovarian
SK-MEL-5 melanoma = test system: SK-MEL-5 melanoma
M14 melanoma = test system: M14 melanoma
MDA-MB-435 = test system: MDA-MB-435
K-562 leukemia = test system: K-562 leukemia
SR leukemia = test system: SR leukemia

Row | Structure (SMILES) | GI50 (NCI-H522 lung) [µM] | TGI (NCI-H522 lung) [µM] | GI50 (SF-268 CNS) [µM] | TGI (SF-268 CNS) [µM] | GI50 (HOP-62 NSCLC) [µM] | TGI (HOP-62 NSCLC) [µM] | GI50 (NCI/ADR-RES ovarian) [µM] | TGI (NCI/ADR-RES ovarian) [µM] | GI50 (OVCAR-3 ovarian) [µM] | TGI (OVCAR-3 ovarian) [µM] | GI50 (SK-MEL-5 melanoma) [µM] | TGI (SK-MEL-5 melanoma) [µM] | GI50 (M14 melanoma) [µM] | TGI (M14 melanoma) [µM] | GI50 (MDA-MB-435) [µM] | TGI (MDA-MB-435) [µM] | GI50 (K-562 leukemia) [µM] | TGI (K-562 leukemia) [µM] | TGI (SR leukemia) [µM]
1 | CC(=O)c1c(C(F)(F)F)n([O-])c2ccc(C)cc2[n+]1=O | 3 | > 24.2 | 3.41 | > 38.9 | 3.64 | 21.9 | 3.34 | > 35.5 | 7.09 | > 48.2 | 1.07 | 3 | 2.41 | 8.88 | 6.99 | 35.9 | 1.1 | 21.4 | –
2 | O=C(Cc1ccccc1)NN1C(=O)C(Cl)C1c1ccccc1O (stereo not given) | – | > 100 | – | > 100 | – | > 100 | – | – | – | > 100 | – | – | – | 30.9 | – | – | – | > 100 | > 100
3 | COc1cc(-c2cc(-c3cc([N+](=O)[O-])c(/C=N/NC(=O)c4ccncc4)o3)ccc2OC)ccc1C | – | > 100 | – | > 100 | – | > 100 | – | – | – | > 100 | – | – | – | > 100 | – | – | – | > 100 | –
4 | COC(CN1C=C(Sc2ccccc2)CC1)OC | – | – | – | > 100 | – | > 100 | – | – | – | 63.6 | – | 34.7 | – | > 100 | – | – | – | 53.7 | –
5 | CCN(CCO)CC(C)Nc1ccc([N+](=O)[O-])c2sc3ccccc3c(=O)c12 (stereo not given) | – | – | 1.98 | 11.5 | 1.27 | 5.55 | 1.6 | 5.86 | 2.96 | 12.3 | 1.52 | 5.56 | 1.54 | 3.45 | 1.54 | 3.8 | 1.44 | 6.71 | –
6 | CCCCCCCCCCCCCP(=O)(O)NCC(N)=O | – | 86.2 | – | > 100 | – | > 100 | – | – | – | > 100 | – | > 100 | – | > 100 | – | – | – | – | –
7 | COC(=O)CC1NC(=O)C1C1(C)OCCO1 (stereo not given) | – | – | – | > 100 | – | > 100 | – | – | – | > 100 | – | > 100 | – | > 100 | – | – | – | – | > 100
8 | COC1O[C@@H]2C[C@H]3C(C)(C)CCC[C@]3(C)C3=CCCC1[C@@]32C (stereo not given in full) | > 100 | > 100 | > 100 | > 100 | > 100 | > 100 | – | – | > 100 | > 100 | > 100 | > 100 | > 100 | > 100 | > 100 | > 100 | > 100 | > 100 | –
9 | Cc1cc(N(CCC#N)CCC#N)ccc1/C=C1/N=C(c2ccccc2)N(N)C1=O | – | 92.1 | – | > 100 | – | > 100 | – | – | – | > 100 | – | > 100 | – | > 100 | – | – | – | > 100 | –
10 | CCCCCCN(N)C(=O)CC#N | – | > 100 | – | > 100 | – | > 100 | – | – | – | > 100 | – | > 100 | – | > 100 | – | – | – | > 100 | –
11 | COc1ccc2c(c1OC)C(=O)OC2C1c2c(c([N+](=O)[O-])c3c(c2OC)OCO3)CCN1C (stereo not given) | > 100 | > 100 | > 100 | > 100 | > 100 | > 100 | > 100 | > 100 | > 100 | > 100 | > 100 | > 100 | > 100 | > 100 | > 100 | > 100 | – | – | –
12 | CC1(C)C2CCC13CS(=O)(=O)N1O[C@]13C(=O)O2 (stereo not given in full) | – | > 100 | – | > 100 | – | > 100 | – | – | – | > 100 | – | – | – | – | – | – | – | > 100 | > 100
13 | CC1NC(=O)C(NC(=O)c2cnc3ccccc3n2)COC(=O)C(C(C)C)N(C)C(=O)C2CSSCC(C(=O)N(C)C(C(C)C)C(=O)OCC(NC(=O)c3cnc4ccccc4n3)C(=O)NC(C)C(=O)N2C)N(C)C1=O (stereo not given) (I: Quinoxaline2carbonyl-SA[NMeC][NMeV] / II: Quinoxaline2carbonyl-SA[NMeC][NMeV]; ester I:1-II:C, I:C-II:1; disulfide I:3-II:3; configuration not given here) | – | < 0.01 | – | 0.0641 | – | 2.27 | – | 0.662 | – | > 100 | – | – | – | < 0.01 | – | < 0.01 | – | > 51.5 | –
14 | CCCCCn1sc(=O)n(Cc2ccc(CNC(=O)OCc3ccc4cccc(O)c4n3)cc2)c1=O | 1.07 | 2.74 | 1.82 | 4.14 | 2.73 | 14.9 | 1.54 | 4.41 | 1.26 | 2.67 | 1.69 | 3.07 | 1.33 | 3.12 | 1.17 | 2.5 | 0.846 | 15.7 | –
15 | Cc1cc2c(c(C(=O)O)c1C)-c1cccc(F)c1C2=O | – | > 100 | – | > 100 | – | > 100 | – | – | – | > 100 | – | > 100 | – | > 100 | – | – | – | > 100 | –
